Test results published in patent publication US9458162B2, “Cyclic molecules as bruton's tyrosine kinase inhibitors” (Nanjing Allgen Pharma Co. Ltd., priority 2012, dated 2016).

Target: T1, Human BTK enzyme (Homo sapiens, UniProt Q06187)
T1 construct: Reaction Biology Corporation
Assay: BTK inhibitory activity assay at Reaction Biology Corporation, peptide substrate
Format: biochemical
Conditions: peptide substrate 20 μM, ATP 10 μM; for inhibition at 0.005 µM: read-out: Inhibition of ALK, IC50 (Inhibitory Activities of examples at 5 nM)

T1 sequence (Q06187 whole entry): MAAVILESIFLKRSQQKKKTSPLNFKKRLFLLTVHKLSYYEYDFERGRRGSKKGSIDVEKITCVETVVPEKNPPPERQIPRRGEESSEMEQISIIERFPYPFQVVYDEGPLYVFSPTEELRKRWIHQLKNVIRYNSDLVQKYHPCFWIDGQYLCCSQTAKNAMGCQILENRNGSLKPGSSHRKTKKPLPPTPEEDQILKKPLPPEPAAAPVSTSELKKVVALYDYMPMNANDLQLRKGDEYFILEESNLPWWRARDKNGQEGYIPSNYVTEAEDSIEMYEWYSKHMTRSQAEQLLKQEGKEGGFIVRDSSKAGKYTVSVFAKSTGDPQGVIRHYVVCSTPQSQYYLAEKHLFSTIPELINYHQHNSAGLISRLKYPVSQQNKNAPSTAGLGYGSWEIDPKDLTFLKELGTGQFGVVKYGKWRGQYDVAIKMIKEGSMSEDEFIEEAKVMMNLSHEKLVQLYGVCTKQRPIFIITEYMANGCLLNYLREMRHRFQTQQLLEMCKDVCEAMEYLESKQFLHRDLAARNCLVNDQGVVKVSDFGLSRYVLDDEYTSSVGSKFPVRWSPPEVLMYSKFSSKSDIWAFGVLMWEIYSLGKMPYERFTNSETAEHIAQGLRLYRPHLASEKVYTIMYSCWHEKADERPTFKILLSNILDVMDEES

SMILES | inhibition at 0.005 µM (compound at 5 nM) | IC50 | percent inhibition of BTK at 5 nM (compound at 5 nM)
C=CC(=O)N1CC2(CC(n3nc(-c4ccc(Oc5ccccc5)cc4)c4c(N)ncnc43)C2)C1 [Example 1, 1-(6-(4-Amino-3-(4-phenoxyphenyl)-1H-pyrazolo[3,4-d]pyrimidin-1-yl)-2-azaspiro[3.3]heptan-2-yl)prop-2-en-1-one] | 98.5% | 1.48 nM | –
C=CC(=O)N1CCC2(CC1)CC(n1nc(-c3ccc(Oc4ccccc4)cc3)c3c(N)ncnc31)C2 [Example 2, 1-(2-(4-amino-3-(4-phenoxyphenyl)-1H-pyrazolo[3,4-d]pyrimidin-1-yl)-7-azaspiro[3.5]nonan-7-yl)prop-2-en-1-one] | 80.1% | – | –
C=CC(=O)N1CC2(CCC(n3nc(-c4ccc(Oc5ccccc5)cc4)c4c(N)ncnc43)CC2)C1 [Example 3, 1-(7-(4-amino-3-(4-phenoxyphenyl)-1H-pyrazolo[3,4-d]pyrimidin-1-yl)-2-azaspiro[3.5]nonan-2-yl)prop-2-en-1-one] | 96.4% | – | –

Other lines, results leading:

inhibition at 0.005 µM (compound at 5 nM) | IC50 | percent inhibition of BTK at 5 nM (compound at 5 nM) | SMILES
85.7% | – | – | C=CC(=O)N1CCCC2(CC(n3nc(-c4ccc(Oc5ccccc5)cc4)c4c(N)ncnc43)C2)C1 (stereo not drawn) [Example 4A, 1-(2-(4-amino-3-(4-phenoxyphenyl)-1H-pyrazolo[3,4-d]pyrimidin-1-yl)-6-azaspiro[3.5]nonan-6-yl)prop-2-en-1-one]
– | – | 97.9% | C=CC(=O)N1CCCC2(CC(n3nc(-c4ccc(Oc5ccccc5)cc4)c4c(N)ncnc43)C2)C1 (stereo not drawn) [Example 4B, 1-(2-(4-amino-3-(4-phenoxyphenyl)-1H-pyrazolo[3,4-d]pyrimidin-1-yl)-6-azaspiro[3.5]nonan-6-yl)prop-2-en-1-one]
